Source: ChEMBL document CHEMBL1201862, “PubChem BioAssay data set” (2004)
Activity calls are given as the source filed them. No stated cut-off is given here; in the data, actives have a measured IC50 and inactives only a lower limit.

Molecular target: Envelope glycoprotein gp160 (Human immunodeficiency virus 1, UniProt Q6QLK5)
Experiment: cell-free HIV fusion peptide-binding blockers – biochemical, uHTS, fluorescence dequenching, […] (AID 1986)

Sequence of Envelope glycoprotein gp160 (Q6QLK5 whole entry, the tested form may be a part): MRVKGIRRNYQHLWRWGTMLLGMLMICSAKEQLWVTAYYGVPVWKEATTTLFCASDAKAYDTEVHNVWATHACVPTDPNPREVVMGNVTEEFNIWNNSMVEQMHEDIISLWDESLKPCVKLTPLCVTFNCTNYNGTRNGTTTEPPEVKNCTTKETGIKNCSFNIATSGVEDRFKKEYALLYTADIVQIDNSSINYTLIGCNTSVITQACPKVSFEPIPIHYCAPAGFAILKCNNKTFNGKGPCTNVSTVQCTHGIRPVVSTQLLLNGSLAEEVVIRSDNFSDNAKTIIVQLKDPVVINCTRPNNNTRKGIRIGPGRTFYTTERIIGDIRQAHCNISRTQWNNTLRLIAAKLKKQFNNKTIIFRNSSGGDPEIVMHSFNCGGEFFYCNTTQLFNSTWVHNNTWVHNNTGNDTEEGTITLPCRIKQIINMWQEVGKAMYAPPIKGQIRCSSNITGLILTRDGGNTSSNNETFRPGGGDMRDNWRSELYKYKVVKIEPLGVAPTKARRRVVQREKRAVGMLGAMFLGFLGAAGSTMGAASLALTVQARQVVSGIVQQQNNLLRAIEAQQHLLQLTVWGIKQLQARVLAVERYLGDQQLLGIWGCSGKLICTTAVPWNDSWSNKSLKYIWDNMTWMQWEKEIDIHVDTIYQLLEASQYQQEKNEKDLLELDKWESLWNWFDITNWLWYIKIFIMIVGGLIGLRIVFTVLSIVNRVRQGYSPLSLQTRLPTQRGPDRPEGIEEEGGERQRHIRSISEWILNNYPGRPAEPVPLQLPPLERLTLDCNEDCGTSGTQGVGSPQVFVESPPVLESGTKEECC

Row | Structure (SMILES) | IC50
1 | Cc1oc2c(cc(NS(=O)(=O)c3ccc(C(C)C)cc3)c3ccccc32)c1C(=O)O | 14.8 µM (active)
2 | N#Cc1c(SCC(=O)Nc2nc3ccc(Br)cc3s2)sc2c(O)cc(=O)[nH]c12 | 11 µM (active)
3 | O=C(CCN1C(=O)/C(=C/c2cccs2)SC1=S)Nc1ccc(C(=O)O)c(O)c1 | 11.6 µM (active)
4 | COc1cccc(OCCOc2ccc(/C=C3\C(=N)N4N=C(S(C)(=O)=O)SC4=NC3=O)cc2OC)c1 | 43.8 µM (active)
5 | O=C(O)c1cc(-c2ccc(/C=N/Nc3ccc(Cl)cc3)o2)ccc1Cl | 24.1 µM (active)
